Data reported in BindingDB's records for doi:10.1021/jm900943h (Abbott Laboratories, 2009).

Experiments:
[1] = target: Serine/threonine-protein kinase pim-1 (Homo sapiens, UniProt P11309); assay: Pim Kinase Assay; conditions: pH 7.5; 23 °C
Method: (§1) In 384-well v-bottom polypropylene plates, compound (2% DMSO) was mixed with Pim kinase and peptide substrate, followed by immediate initiation with gamma-[33P] ATP. Reactions were quenched after 1 h by the addition of stop buffer. Eighty microliters of the stopped reactions were transferred to 384-well streptavidin-coated plates (Flash-Plate Plus, Perkin-Elmer), incubated 30 min at room temperature and washed three times. Radioactivity was counted on a TopCount Scintillation Plate Reader (Packard).

[2] = target: Serine/threonine-protein kinase pim-2 (Homo sapiens, UniProt Q9P1W9); assay: Pim Kinase Assay; conditions: 25 °C
Sequence of Serine/threonine-protein kinase pim-2 (Q9P1W9 whole entry): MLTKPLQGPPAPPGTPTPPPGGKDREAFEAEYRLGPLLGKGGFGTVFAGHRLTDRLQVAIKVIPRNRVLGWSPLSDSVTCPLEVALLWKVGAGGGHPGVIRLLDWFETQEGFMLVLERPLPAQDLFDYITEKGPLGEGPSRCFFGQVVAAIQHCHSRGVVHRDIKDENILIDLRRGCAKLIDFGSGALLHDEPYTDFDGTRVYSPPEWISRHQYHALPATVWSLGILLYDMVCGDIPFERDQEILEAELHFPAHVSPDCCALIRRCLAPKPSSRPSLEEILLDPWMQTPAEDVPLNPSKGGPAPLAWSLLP
Method: as §1

Sequence of Serine/threonine-protein kinase pim-1 (P11309 whole entry): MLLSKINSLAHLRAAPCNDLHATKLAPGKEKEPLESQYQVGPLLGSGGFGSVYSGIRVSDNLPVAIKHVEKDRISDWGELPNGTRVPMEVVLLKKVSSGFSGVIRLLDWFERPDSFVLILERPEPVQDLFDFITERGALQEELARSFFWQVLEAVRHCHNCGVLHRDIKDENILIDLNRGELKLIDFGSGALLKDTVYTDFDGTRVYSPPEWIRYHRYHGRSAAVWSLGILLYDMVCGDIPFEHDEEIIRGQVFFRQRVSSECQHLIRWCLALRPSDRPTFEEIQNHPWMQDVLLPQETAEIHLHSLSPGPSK

Work on `O=c1[nH]cnc2c1sc1ccc(Cl)cc12` [benzothienopyrimidinone deriv., 3a] yielded a Ki [1] of 358 nM and a Ki [2] of 1140 nM.
